The source of these data is PubChem BioAssay (NCI).

Each structure is given as a SMILES string. “And” between values parts separate entries of the source, which are not always exact repeats. Identical values can stand only once.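 Dose response: 5 concentrations. Exposure: 48 h. Format: 96-well plates. Endpoint: linear interpolation; highest concentration if not reached. GI50 = concentration required for 50% inhibition of growth. The concentration for full growth arrest is given as TGI.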

Test systems include A549 NSCLC; ACHN renal; COLO 205 colon; M14 melanoma; MOLT-4 leukemia; SN12C renal; SW-620 colon; U251 CNS; UACC-257 melanoma; NCI-H23 lung.
Holding throughout (test): NCI tumour cell line growth inhibition, 48 h

Turning to `Cc1cc(Nc2nc(-c3cn(-c4ccc(Cl)cc4)nn3)nc3ccccc23)n[nH]1`, the GI50 in the assay with A549 NSCLC was 11.4 µM; in the assay with ACHN renal it was 3.62 µM; in the assay on COLO 205 colon, 38.2 µM; with M14 melanoma, 7.54 µM; in the assay with MOLT-4 leukemia, 22 µM; in the assay on SN12C renal, 10.7 µM. The GI50 with SW-620 colon was 12.5 µM; in the assay with U251 CNS, 9.39 µM; in the assay with UACC-257 melanoma, 33.4 µM. Besides, the TGI with A549 NSCLC, in the assay on ACHN renal, in the assay on COLO 205 colon, in the assay with M14 melanoma, in the assay on MOLT-4 leukemia and in the assay with SN12C renal was over 50 µM in each case. The TGI with SW-620 colon, in the assay on U251 CNS and in the assay with UACC-257 melanoma was over 50 µM each time.

With `COc1cccc(/C=N/[N-]C(=O)c2ccncc2)c1[O-].COc1cccc(/C=N/[N-]C(=O)c2ccncc2)c1[O-].[O]=[U](=[O])([OH2+])[OH2+]`, the GI50 in the assay on A549 NSCLC was 27.9 µM; in the assay with ACHN renal, 3.79 µM; with COLO 205 colon, 4.09 µM; in the assay with M14 melanoma, 5.47 µM; in the assay with MOLT-4 leukemia, 1.44 µM; with NCI-H23 lung, 3.93 µM. In addition, the GI50 in the assay on SN12C renal was 7.15 µM; in the assay with SW-620 colon it was 7.81 µM; in the assay on U251 CNS it was 4.34 µM; with UACC-257 melanoma it was 4.73 µM. Moreover, the TGI is over 100 µM in the assay with A549 NSCLC; 27.7 µM with ACHN renal; over 100 µM with COLO 205 colon; over 61.4 µM in the assay with M14 melanoma; over 100 µM with MOLT-4 leukemia; over 70 µM in the assay on NCI-H23 lung. The TGI in the assay with SN12C renal is 32.5 µM; in the assay with SW-620 colon, over 100 µM; in the assay on U251 CNS, 40.8 µM; in the assay on UACC-257 melanoma it was over 54.4 µM.

For `O=C(Nc1cc(Nc2ncccc2-c2ncnc3nc[nH]c23)ccc1F)c1cc(C(F)(F)F)cc(C(F)(F)F)c1`, the GI50 is 3.05 µM in the assay on A549 NSCLC; 1.42 µM with ACHN renal; 0.39 µM in the assay with COLO 205 colon; 0.33 µM with M14 melanoma; 2.32 µM in the assay with MOLT-4 leukemia; 1.45 µM in the assay on NCI-H23 lung. For the same compound, the GI50 in the assay with SN12C renal is 2.73 µM; with SW-620 colon it was 1.54 µM; with U251 CNS, 2.88 µM; with UACC-257 melanoma, 0.474 µM. For the same compound, the TGI is over 10 µM in the assay on A549 NSCLC; 4.27 µM in the assay with ACHN renal; 2.2 µM in the assay with COLO 205 colon; 1.6 µM in the assay with M14 melanoma; 6.67 µM with MOLT-4 leukemia; over 10 µM with NCI-H23 lung. The TGI in the assay with SN12C renal, in the assay on SW-620 colon, with U251 CNS and with UACC-257 melanoma was over 10 µM in each case.

As for `OC(c1cc(-c2ccc(C(F)(F)F)cc2)nc(C(F)(F)F)c1)C1CCCCN1` (centres undefined), the GI50 was 1.84 µM and 2.05 µM with A549 NSCLC; 1.56 µM and 2.37 µM in the assay with ACHN renal; 1.32 µM in the assay on MOLT-4 leukemia; 1.68 µM and 2.39 µM in the assay with NCI-H23 lung; 1.79 µM and 3.13 µM with SN12C renal; 1.53 µM in the assay on U251 CNS. Also, the TGI in the assay with A549 NSCLC was 3.4 µM and 4.92 µM; in the assay with ACHN renal it was 2.9 µM and 6.39 µM; in the assay on COLO 205 colon it was 3.42 µM and 3.15 µM; in the assay on M14 melanoma, 3.12 µM and 3.14 µM; with MOLT-4 leukemia, 3.16 µM and 4.34 µM; in the assay on NCI-H23 lung it was 3.15 µM and 6.12 µM. For the same compound, the TGI in the assay on SN12C renal was 3.19 µM and 7.37 µM; in the assay on SW-620 colon it was 3.33 µM and 3.36 µM; in the assay on U251 CNS it was 2.86 µM and 3.34 µM; in the assay with UACC-257 melanoma it was 3.59 µM and 3.69 µM.

Turning to `Nc1c(-c2ccccc2-c2c(N)[n+]([O-])c3ccccc3[n+]2[O-])[n+]([O-])c2ccccc2[n+]1[O-]`, the TGI is over 100 µM in the assay with A549 NSCLC; over 100 µM with ACHN renal; 23.6 µM in the assay on COLO 205 colon; 30.1 µM in the assay on M14 melanoma; 8.42 µM with MOLT-4 leukemia; over 100 µM with NCI-H23 lung. The TGI was over 100 µM in the assay with SN12C renal, over 100 µM with SW-620 colon, over 100 µM in the assay with U251 CNS and 35.2 µM in the assay on UACC-257 melanoma.

Consider `CO[C@H]1Nc2c(ccc(C)c2O)C(=O)N2C=C(/C=C/C(N)=O)C[C@@H]12`, for which the TGI with A549 NSCLC was over 72.3 µM; in the assay with COLO 205 colon it was 0.1 µM; with M14 melanoma it was 0.0406 µM; in the assay with MOLT-4 leukemia, 6.29 µM; in the assay with NCI-H23 lung it was 0.354 µM; with SN12C renal, 1.05 µM. Further, the values for the TGI with SW-620 colon, in the assay with U251 CNS and in the assay with UACC-257 melanoma were 17.7 µM, 10.8 µM and 0.134 µM, respectively.

For the compound `COc1ccc(-c2nn(-c3cccc(Cl)c3)cc2-c2cc(-c3ccccc3)[nH]c(=O)c2C#N)cc1`, the GI50 in the assay on A549 NSCLC was 2.26 µM; in the assay on ACHN renal, 1.83 µM; in the assay on COLO 205 colon it was 7.4 µM; with M14 melanoma, 2.27 µM; in the assay on MOLT-4 leukemia, 42.3 µM; in the assay with NCI-H23 lung it was 2.46 µM. Also, the figures for the GI50 with SN12C renal, in the assay with SW-620 colon and with U251 CNS were 7.94 µM, 9.23 µM and 1.48 µM, respectively. Besides, the TGI is over 50 µM with A549 NSCLC; 10.7 µM in the assay with ACHN renal; over 50 µM in the assay on COLO 205 colon; 34.6 µM in the assay with M14 melanoma; over 50 µM in the assay on MOLT-4 leukemia; 13.6 µM with NCI-H23 lung. Moreover, the figures for the TGI in the assay on SN12C renal, in the assay with SW-620 colon and with U251 CNS were over 50 µM, over 50 µM and 6.76 µM, respectively.

Turning to `NNCCc1ccc(NC(=O)CCCc2ccc(C(=O)Nc3ccccc3N)cc2)cc1`, the GI50 in the assay with A549 NSCLC is 31.9 µM; in the assay with ACHN renal, 17.7 µM; in the assay with COLO 205 colon, 8.48 µM; in the assay on M14 melanoma, 15.2 µM; in the assay with MOLT-4 leukemia it was 3.22 µM; with NCI-H23 lung, 21 µM. Also, the figures for the GI50 in the assay on SN12C renal, in the assay on SW-620 colon and in the assay with U251 CNS were 28 µM, 5.77 µM and 12 µM, respectively. Besides, the TGI in the assay on A549 NSCLC was over 100 µM; in the assay on ACHN renal it was over 100 µM; with COLO 205 colon, 40.7 µM; in the assay with M14 melanoma, over 100 µM; with MOLT-4 leukemia, 26.8 µM; in the assay on NCI-H23 lung it was over 100 µM. The TGI in the assay on SN12C renal, with SW-620 colon and in the assay on U251 CNS was over 100 µM in each case.
